From patent US4761408A, “Crystalline aminomethyl compound” (priority 1984, dated 1988)
Converted amounts (≈) assume the structure as drawn.

What was measured:
[1] = Determination of the thermal stability (50°, HPLC penem content); assay type: physicochemical
Procedure: In order to determine the thermal stability, samples of crystalline (5R,6S)-2-aminomethyl-6-[(1R)-1-hydroxyethyl)-2-penem-3-carboxylic acid and amorphous racemic (5R,6S,1'R and 5S,6R,1'S)-2-aminomethyl-6-(1'-hydroxyethyl)-2-penem-3-carboxylic acid previously known from German Offenlegungsschrift No. 2 950 898 are used.
20 mg samples are weighed in glass tubes. The glass tubes are sealed firmly with PVC stoppers and heated in a thermostatted oil bath at 50°. At regular intervals individual glass tubes are removed from the oil bath, the samples are dissolved in 100 ml of doubly distilled water and the penem content is determined by means of HPLC analysis [UV detector: Kratos, 305 nm; injection machine: Wisp; 20 μl charge; integrator: Shimazu, C-R3A; pump: Altex, 2.0 ml/minute; column: Knauer, 25 cm×4 mm, C18 /10 um; eluant: acetonitrile/water 2:98, pH5].

[2] = tested on: Streptococcus pyrogenes Aronson 1129; assay: in vitro MIC; assay type: cell-based; settings: ARONSON1129
[3] = tested on: Escheichia coli 205 R + TEM; assay: in vitro MIC; assay type: cell-based; settings: read-out: in vitro MIC
[4] = stability to the enzyme dehydropeptidase from human kidneys; assay type: in vitro ADME; settings: kidney dehydropeptidase, read-out: t1/2 (stability to dehydropeptidase) (converted)
Description: Compounds A and B have the following stability (expressed in half-life periods t1/2) to the enzyme dehydropeptidase from human kidneys: […]

[5] = stability to storage of the solid product; assay type: physicochemical
[6] = tested on: Staphylococcus aureus, Escherichia coli or Streptococcus pyogenes; assay: systemic infection of mice; assay type: in vivo; settings: sc, parenteral, such as subcutaneous, administration
[7] = Day 0, 50°, solid in sealed glass tube

| SMILES | Penem content [1, 7] | Penem content ([1]; Day 1.8, 50°, 2592 min) [%] | Penem content ([1]; Day 3, 50°, 4320 min) [%] | Penem content ([1]; Day 4.5, 50°, 6480 min) [%] | Penem content ([1]; Day 7, 50°, 10080 min) [%] | Penem content ([1]; Day 9, 50°, 12960 min) [%] | Penem content ([1]; Day 12, 50°, 17280 min) [%] | Penem content ([1]; Day 14, 50°, 20160 min) [%] | MIC [2] [µg/mL] | MIC [3] [µg/mL] | half-life [4] [h] | absorption of water from the air ([5]; approximately normal ambient conditions) | stability under light, heat and air ([5]; relatively long-term action of light, heat (50° C.) and air) | ED50 [6] [mg/kg] |
| --- | --- | --- | --- | --- | --- | --- | --- | --- | --- | --- | --- | --- | --- | --- |
| C[C@@H](O)[C@H]1C(=O)N2C(C(=O)O)=C(CN)S[C@H]12 (relative stereo) [Compound B, (1'R,5R,6S+1'S,5S,6R)-2-aminomethyl-6-(1'-hydroxyethyl)-2-penem-3-carboxylic acid, reference compound] | approx. 100% | 84 | 78 | 73 | 67 | 64 | 63 | 62 | 0.5 (≈ 2.05 µM) | 8 (≈ 32.8 µM) |  |  |  |  |
| C[C@@H](O)[C@H]1C(=O)N2C(C(=O)O)=C(CN)S[C@H]12 [Compound A, (5R,6S)-2-aminomethyl-6-[(1R)-1-hydroxyethyl]-2-penem-3-carboxylic acid] | approx. 100% | 99 | 98 | 97 | 95 | 94 | 92 | 91 | 0.2 (≈ 0.819 µM) | 4 (≈ 16.4 µM) | 6.75 | no tendency to absorb relatively large quantities of water from the air | very stable | 0.3 to 30 |
